Each structure is given as a SMILES string. Square brackets hold non-standard residues; d marks the D form. Peptide text beside a SMILES is read from it. ξ: configuration not given here. ξGly(decyl) = CCCCCCCCCCC(N)C(=O)O

The nature of series [1]: In vitro metabolic stability in plasma. The following applies: male CD-1 mouse plasma, 10 µM test compound, n = 3, ± SD; for half-life: mouse, plasma, read-out: t1/2 in Plasma. Type of series: in vitro ADME. The protocol: (§1) Metabolic stability studies were carried out as reported before using freshly made brain homogenate (20% w/v) and plasma at 37 °C, in triplicate. For obtaining brain homogenates, a Bead Bug microtube homogenizer (Benchmark Scientific, Edison, NJ, USA) was used. For obtaining plasma, blood was collected in BD Vacutainer® Sodium Heparin tubes (Becton, Dickinson and Co., Franklin Lakes, NJ, USA) followed by centrifugation. Each biological matrix was spiked with compound (1) or TRH to create 10 µM solutions. KYP-2047, a POP inhibitor, was used in selected experiments at 50 µM concentration. Sample aliquots (100 µL) of TRH-containing matrices were removed after 2, 4, 6, 8, 10, 15, and 30 min, while sample aliquots (100 µL) of prodrug-containing matrices were obtained at 5, 10, 20, 30, 40, 60, 90, 120, and 210 min. Sample aliquots were added to 200 µL of acetic acid solution (20% v/v) in acetonitrile, thoroughly vortexed and, then, centrifuged before LC–MS/MS analysis. For LC separation, a Kinetex-C8 column (10 cm × 4.6 mm i.d., dp = 2.6 µm; Phenomenex; Torrance, CA, USA) with the eluent mixed from (A) H2O with 0.1% (v/v) formic acid and (B) acetonitrile with 0.1% (v/v) formic acid, flow rate of 400 µL/min, and gradient elution by a 10-min linear program from 0% B to 90% B were employed. Half-life (t1/2) values were calculated by assuming pseudo-first-order degradation.

A short description of series [2]: In vitro metabolic stability in brain homogenate. As to conditions: mouse, male CD-1 mouse brain homogenate, 10 µM test compound. Type of series: in vitro ADME. The protocol:
as §1

The mark [3] stands for this setting: 37 °C, n = 3, ± SD, read-out: t1/2 in 20% (w/v) Brain Homogenate.

Turning to `CCCCCCCCCCC(N)C(=O)NC(CCCCCCCCCC)C(=O)N1CCC[C@H]1C(=O)N1CCC[C@H]1C(=O)N[C@@H](CCC(N)=O)C(=O)N[C@@H](Cc1c[nH]cn1)C(=O)N1CCC[C@H]1C(N)=O` (stereo partly drawn) [(1), C12-C12-Pro-Pro-Gln-His-Pro-NH2] (H-[ξGly(decyl)][ξGly(decyl)]PPQHP-NH2), the half-life in series [1] (37 °C) was 1.67 ± 0.117 h; in series [1] (with POP inhibitor KYP-2047 at 50 µM), 1.92 ± 0.217 h; in series [2] (setting [3]) it was 0.783 ± 0.1 h; in series [2] (with POP inhibitor KYP-2047 at 50 µM, n = 3, read-out: t1/2 in 20% (w/v) Brain Homogenate), greater than 24 h. In addition, the “t1/2 in Plasma” value in series [1] (with POP inhibitor KYP-2047 at 50 µM, listed as prodrug) is listed as “did not change”.

Regarding `NC(=O)[C@@H]1CCCN1C(=O)[C@H](Cc1cnc[nH]1)NC(=O)[C@@H]1CCC(=O)N1` [TRH, pGlu-His-Pro-NH2, reference compound], the half-life in series [1] (37 °C) is roughly 0.117 h; in series [2] (setting [3]), less than 0.0833 h.
